{
  "source": "patent US6867179B1",
  "about": "“Methods of inducing hair growth and coloration” (Trustees of Boston University, priority 1994, dated 2005)",
  "assay_type_in_all_cases": "cell-based, human",
  "key": {"[1]": {"tested_on": "MM4 cells", "assay": "DNA fragmentation (DNA ladder) after UV irradiation, FIG. 3A", "conditions": "50 ng/ml NGF, 24 hours after UV irradiation", "procedure": "Cells in 100 mm tissue culture dishes were washed with cold PBS and disrupted in lysis buffer pH8 (10 mM tris, 150 mM NaCl, 0.1 mM EDTA, 1% SDS, 200 µg/ml proteinase K). After 15 hour incubation at […], samples were extracted twice with phenol plus chloroform (1:1, V/V) and precipitated overnight with ethanol (2.5×volume) and 3 M sodium acetate (1/10×volume). The DNA was then digested with DNAse free ribonuclease ([…]) for one hour at […], separated on 1% agarose gel and stained with ethidium bromide. The size marker is 100 bp DNA ladder (STD) (Gibco/BRL, Gaithersburg, Md.).\n(§1) Melanocytes or MM4 cells were plated as described in Example 1. After irradiation, melanocytes were maintained in basal melanocyte medium lacking FBS and hydrocortisone, with 50 ng/ml NGF or diluent alone (melanocyte medium). MM4 cells were maintained in DME supplemented with 50 ng/ml NGF or diluent alone.\nThe standard (STD) is 100 bp DNA ladder (Gibco/BRL). (See FIG. 3A)."}, "[2]": {"tested_on": "melanocytes", "assay": "NGF protection of melanocytes from beta-amyloid-induced cell death", "procedure": "Melanocytes were maintained as above in hormone supplemented medium lacking hydrocortisone. Cells were supplemented with 25 microM of beta-amyloid 1-40 in the presence of 50 ng/ml NGS or diluent.\nPhotographs of representative fields were obtained and the percent of the live cells (spread) was determined 48 hours after addition of beta-amyloid and NFG or beta-amyloid and diluent. In the presence of beta-amyloid and diluent 77±8.5% appeared spread as compared to 96±1.4% in cultures supplemenbetated in beta-amyloid and NGF."}, "[3]": {"tested_on": "Keratinocytes", "assay": "Keratinocyte DNA fragmentation and cell yield after UV irradiation with NGF", "procedure": "Keratinocytes were plated in 60 mm diameter tissue culture dishes in MCDB153 supplemented with epidermal growth factor (0.1 ng/ml human recombinant), insulin (5 microg/ml), hydrocortisone (0.5 microg/ml, calcium (0.15 mM), bovine pituitary extract (BPE), (2 ml per 500 ml medium), gentamicin (50 microg/ml), and amphotericin-B (50 ng/ml) (karetinocyte basal medium). Preconfluent cells were irradiated in phosphate buffered saline PBS) using a 1 KW xenon arc solar simulator (XMN 1000-21, Optical Radiation Corp., Azuza, Calif.) with 15 or 25 mJ/cm^2 UV through the petri dish plastic cover as described in Example 7. After UV irradiation, cells were maintained in their basal medium 3 days and processed as indicated. Sham irradiated control cultures were handled identically but placed under a dark cloth adjacent to the UV beam.\nCells were washed with cold PBS and disrupted in lysis buffer pH8 (10 mM tris, 150 mM NaCl, 0.1 mM EDTA, 1% SDS, 200 µg/ml proteinase K). After 15 hour incubation at […], samples were extracted twice with phenol plus chloroform (1:1, V/V) and precipitated overnight with ethanol (2.5×volume) and 3 M sodium acetate (1/10×volume). The DNA was then digested with DNAse free ribonuclease (10 microg/ml) for one hour at 37C, separated on 1% agarose gel and stained with ethidium bromide.\nKeratinocytes were UV-irradiated as in Example 9. After irradiation cells were placed in fresh keratinocyte medium containing 50 ng/ml NGF or diluent alone. DNA fragmentation was determined as in Example 9. […] The standard (STD) is 100 bp DNA ladder (Gibco/BRL). […] UV irradiated keratinocytes were growth arrested as expected."}, "[4]": {"tested_on": "MM4 cells", "assay": "MM4 cell yields after UV or sham irradiation with growth factor supplementation", "conditions": "UV 10 mJ/cm^2, 50 ng/ml NGF, 4 experiments", "procedure": "Melanocytes or MM4 cells were plated in 60 mm diameter tissue culture dishes. Melanocytes were maintained in Medium 199 supplemented with 7% fetal bovine serum (FBS), 10 ng/ml epidermal growth factor (Collaborative Research), […] (Sigma), […] (Collaborative Research), […] (Sigma), 1.4×10^−6 M hydrocortisone (Calbiochem), […] (Calbiochem), and 10 ng/ml basic fibroblast growth factor (Collaborative Research) (basal melanocyte medium). MM4 cells were maintained in 55.3% DME, 27.6% L15, 15% FBS, 1% nonessential amino acids (GIBCO BRL), 2 mM glutamine and 10 µg/ml insulin. After 24 hours, medium was replaced by phosphate buffered saline (PBS) and cells were irradiated using a 1 KW xenon arc solar simulator (XMN 1000-21, Optical Radiation Corp., Azuza, Calif.) with 5, 10, or 25 mJ/cm^2 UV through the petri dish plastic cover. Irradiance was adjusted to 4×10^−5 UV cm^−2 and metered with a research radiometer (model IL1700A, International Light, Newburyport, Mass.) fitted with a UVB probe at 285 Å 5 nm. After UV irradiation, cells were maintained in their respective media without FBS for 2 days (MM4 cells) or 3 days (melanocytes) and processed as indicated. Sham irradiated control cultures were handled identically but laced under a dark cloth adjacent to the UV beam.\nFIGS. 2B and 2D show MM4 cell yields 24-72 hours after a single UV irradiation of 10 mJ/cm^2. FIGS. 2C and 2e show MM4 cell yields 24-72 hours after sham irradiation. Cells in FIGS. 2B and 2C were supplemented with 50 ng/ml NGF or diluent alone. Cells in FIGS. 2D and 2E were supplemented with 50 ng/ml bFGF or diluent alone.\nas §1"}, "[5]": {"tested_on": "BCL-2", "assay": "BCL-2 antisense oligonucleotides in UV-irradiated MM4 cells with or without NGF", "conditions": "UV 10 mJ/cm^2, NGF 50 ng/ml, 48 hours", "from_the_text": "Purified phosphorothioate oligonucleotides were purchased from Quality Controlled Biochemicals, Inc. (Hopkinton, Mass.). 19 mer oligonucleotides were designed based on the published human BCL-2 sequence (Tsujimoto, Y. and Croce, C. M., Proc. Natl. Acad. Sci. USA, 83:5214-5218 (1986)). The sequence chosen was directed against the […] of the coding region starting 4 bases before the methionine initiation site. Nonsense oligonucleotides were used as control. Sequences used (all written 5′ to 3′): Antisense CCCAGCGTGCGCCATCCTT (SEQ ID NO: 7); Nonsense CTCCCACTCGTCATTCGAC (SEQ ID NO: 8).\nMM4 cells were maintained in 60 mm diameter tissue culture dishes in 55.3% DME, 27.6% L15, 15% FBS, 1% nonessential amino acids (GIBCO BRL), 2 mM glutamine and 10 µg/ml insulin. Near confluent cells were UV irradiated with 10 mJ/cm^2. Immediately after irradiation cells were incubated with 10 uM antisense or nonsense BCL-2 oligonucleotides in suspension at […] for 30 minutes. Then cells were plated in tissue culture dishes in the presence or absence of NGF (50 ng/ml). Cells were supplemented with fresh oligonucleotides every 12 hours. Cell yield and BCL-2 level were determined 48 hours after irradiation. Cell yield was determined by counting cells in at least three representative field per each condition."}, "[6]": {"conditions": "NGF supplementation, preliminary data"}},
  "note": "Entries after “also recorded” stand apart in the source; their conditions may differ.",
  "data": [
    {"substance": "NGF: nerve growth factor, neurotrophin ligand of p75 NGF-R and trk", "values": [
      {"measurement": "DNA fragmentation after UV irradiation", "setting": "[1]", "result": "not fragmented; also recorded: far less fragmentation"},
      {"measurement": "Percent of live cells (spread)", "setting": "[2]; 25 microM beta-amyloid 1-40 and 50 ng/ml NGF, 48 hours", "result": "96±1.4", "unit": "%"},
      {"measurement": "Cell yields of beta-amyloid-supplemented melanocytes", "setting": "[2]; NGF addition, within 3-5 days", "result": "enhanced cell yields"},
      {"measurement": "Bcl-2 levels in beta-amyloid treated cells", "setting": "[2]; [6]", "result": "increases Bcl-2 levels"},
      {"measurement": "Beta-amyloid-induced Bax upregulation", "setting": "[2]; [6]", "result": "decreases the beta-amyloid-induced Bax upregulation"},
      {"measurement": "Appearance of beta-amyloid exposed melanocytes", "setting": "[2]; in the presence of NGF", "result": "appear healthy and spread on the dish surface"},
      {"measurement": "DNA fragmentation of UV irradiated keratinocytes", "setting": "[3]; 50 ng/ml NGF", "result": "not fragmented"},
      {"measurement": "Increase in keratinocyte cell yields", "setting": "[3]; NGF supplemented medium, within 5 days", "result": 40, "unit": "%"},
      {"measurement": "Decrease in keratinocyte cell yield", "setting": "[3]; UV irradiated, 50 ng/ml NGF, within 24 hours, diluent 50%", "result": 30, "unit": "%"},
      {"measurement": "Cell yields of MM4 cells versus diluent alone", "setting": "[4]", "result": "significantly higher"},
      {"measurement": "Cell yields, NGF plus nonsense oligonucleotides versus diluent plus nonsense", "setting": "[5]", "result": "significantly higher"}
    ]}
  ]
}
